Measured values published in patent US9655887B2, “Pharmaceutical composition and the use thereof, and application regime of said pharmaceutical composition for on-demand contraception” (BAYER PHARMA AKTIENGESELLSCHAFT, priority 2013, dated 2017).

Target: EP2 subtype of the human PGE2 receptor (hEP2 receptor) (Homo sapiens, UniProt P43116)
Assay: cAMP antagonism test, human prostaglandin E2 (subtype EP2) receptor signal
Format: cell-based
Summary of the method: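 Cells (625000 cells/ml, mixed with cAMP-d2) were preincubated 20 min at RT with compound ([…]). They were then stimulated 60 min at RT with a 3× PGE2 solution (1.5 nM) in PBS-IBMX and lysed for 20 min. cAMP was read by HTRF as the 665/620 nm ratio ×10000, with antagonism seen as a rise in FRET signal.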

Chain of EP2 subtype of the human PGE2 receptor (hEP2 receptor) (P43116 whole entry): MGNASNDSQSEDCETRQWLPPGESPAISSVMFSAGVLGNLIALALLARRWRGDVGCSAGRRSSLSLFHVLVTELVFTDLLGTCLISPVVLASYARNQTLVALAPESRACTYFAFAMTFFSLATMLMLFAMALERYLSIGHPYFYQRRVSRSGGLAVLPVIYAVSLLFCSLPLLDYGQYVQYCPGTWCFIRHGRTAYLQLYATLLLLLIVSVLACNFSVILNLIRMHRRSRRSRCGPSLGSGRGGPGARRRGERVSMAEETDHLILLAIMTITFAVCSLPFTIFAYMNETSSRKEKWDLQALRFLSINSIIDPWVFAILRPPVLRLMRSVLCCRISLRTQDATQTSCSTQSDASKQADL

Structure (SMILES)	IC50 [nM]
COCCNC(=O)c1ccc2nn(CC3CCN(C(=O)c4ccc(C)cc4)CC3)cc2c1C [Example E12, N-(2-methoxyethyl)-4-methyl-2-{[1-(4-methylbenzoyl)piperidin-4-yl]methyl}-2H-indazole-5-carboxamide]	> 50
COCCNC(=O)c1ccc2nn(CC3CCN(C(=O)c4ccc(C(F)(F)F)cc4)CC3)cc2c1C [Example E22, N-(2-methoxyethyl)-4-methyl-2-({1-[4-(trifluoromethyl)benzoyl]piperidin-4-yl}-methyl)-2H-indazole-5-carboxamide]	> 50
COCCNC(=O)c1ccc2nn(CC3CCN(C(=O)c4ccc(Oc5ccccn5)cc4)CC3)cc2c1C [Example E162, N-(2-methoxyethyl)-4-methyl-2-({1-[4-(pyridin-2-yloxy)benzoyl]piperidin-4-yl}methyl)-2H-indazole-5-carboxamide]	> 50
Cc1c(C(=O)NCCOCC(F)(F)F)ccc2nn(CC3CCN(C(=O)c4ccc(Cl)cc4)CC3)cc12 [Example E65, 2-{[1-(4-chlorobenzoyl)piperidin-4-yl]methyl}-4-methyl-N-[2-(2,2,2-trifluoroethoxy)-ethyl]-2H-indazole-5-carboxamide]	> 50
COCCNC(=O)c1ccc2nn(CC3CCN(C(=O)c4ccc(C(C)(C)C)cc4)CC3)cc2c1C [Example E155, 2-{[1-(4-tert-butylbenzoyl)piperidin-4-yl]methyl}-N-(2-methoxyethyl)-4-methyl-2H-indazole-5-carboxamide]	> 50
COCCNC(=O)c1ccc2nn(CC3CN(C(=O)c4ccc(Oc5ccc(F)cc5)cc4)C3)cc2c1C [Example E109, 2-({1-[4-(4-fluorophenoxy)benzoyl]azetidin-3-yl}methyl)-N-(2-methoxyethyl)-4-methyl-2H-indazole-5-carboxamide]	> 50
Cc1c(C(=O)NCCOCC2CC2)ccc2nn(CC3CN(C(=O)c4ccc(Oc5ccc(F)cc5)cc4)C3)cc12 [Example E103, N-[2-(cyclopropylmethoxy)ethyl]-2-({1-[4-(4-fluorophenoxy)benzoyl]azetidin-3-yl}-methyl)-4-methyl-2H-indazole-5-carboxamide]	> 50
Cc1c(C(=O)NCC(F)(F)F)ccc2nn(CC3CN(C(=O)c4ccc(Oc5ccc(C(F)(F)F)cc5)cc4)C3)cc12 [Example E114, 4-methyl-N-(2,2,2-trifluoroethyl)-2-[(1-{4-[4-(trifluoromethyl)phenoxy]benzoyl}-azetidin-3-yl)methyl]-2H-indazole-5-carboxamide]	> 50
COCCNC(=O)c1ccc2nn(CC3CCN(C(=O)c4ccc(-c5cnc(C(F)(F)F)nc5)cc4)CC3)cc2c1C [Example E195, N-(2-methoxyethyl)-4-methyl-2-[(1-{4-[2-(trifluoromethyl)pyrimidin-5-yl]benzoyl}-piperidin-4-yl)methyl]-2H-indazole-5-carboxamide]	> 50
COCCNC(=O)c1ccc2nn(CC3CCN(C(=O)c4ccc(Cl)cc4)CC3)cc2c1C [Example E54, 2-{[1-(4-chlorobenzoyl)piperidin-4-yl]methyl}-N-(2-methoxyethyl)-4-methyl-2H-indazole-5-carboxamide]	> 50
COCCNC(=O)c1ccc2nn(CC3CCN(C(=O)c4ccc(-c5ccc(OC)cn5)cc4)CC3)cc2c1C [Example E186, N-(2-methoxyethyl)-2-({1-[4-(5-methoxypyridin-2-yl)benzoyl]piperidin-4-yl}methyl)-4-methyl-2H-indazole-5-carboxamide]	> 50
COCCNC(=O)c1ccc2nn(CC3CCN(C(=O)c4ccc(-c5ccc(OC)cc5)cc4)CC3)cc2c1C [Example E166, 2-({1-[(4′-methoxybiphenyl-4-yl)carbonyl]piperidin-4-yl}methyl)-N-(2-methoxyethyl)-4-methyl-2H-indazole-5-carboxamide]	> 50
COCCNC(=O)c1ccc2nn(CC3CCN(C(=O)c4ccc(Oc5ccccc5F)cc4)CC3)cc2c1C [Example E179, 2-({1-[4-(2-fluorophenoxy)benzoyl]piperidin-4-yl}methyl)-N-(2-methoxyethyl)-4-methyl-2H-indazole-5-carboxamide]	> 50
Cc1c(C(=O)NCC(F)(F)F)ccc2nn(CC3CCN(C(=O)c4ccc(Oc5ccc(F)c(F)c5)cc4)CC3)cc12 [Example E137, 2-({1-[4-(3,4-difluorophenoxy)benzoyl]piperidin-4-yl}methyl)-4-methyl-N-(2,2,2-trifluoroethyl)-2H-indazole-5-carboxamide]	> 50
[2H]C([2H])([2H])OC([2H])([2H])C([2H])([2H])NC(=O)c1ccc2nn(CC3CCN(C(=O)c4ccc(Oc5ccc(F)cc5)cc4)CC3)cc2c1C [Example E86, 2-({1-[4-(4-fluorophenoxy)benzoyl]piperidin-4-yl}methyl)-4-methyl-N-{2-[(^2H3)methyloxy](^2H4)ethyl}-2H-indazole-5-carboxamide]	> 50

More lines, now with the values ahead:

IC50 [nM]	Structure (SMILES)
> 50	COCCNC(=O)c1ccc2nn(CC3CN(C(=O)c4ccc(C(F)(F)F)cc4F)C3)cc2c1C [Example E90, 2-({1-[2-fluoro-4-(trifluoromethyl)benzoyl]azetidin-3-yl}methyl)-N-(2-methoxyethyl)-4-methyl-2H-indazole-5-carboxamide]
> 50	COCCNC(=O)c1ccc2nn(CC3CCN(C(=O)c4ccc(Oc5ccc(OC)cc5)cc4)CC3)cc2c1C [Example E17, N-(2-methoxyethyl)-2-({1-[4-(4-methoxyphenoxy)benzoyl]piperidin-4-yl}methyl)-4-methyl-2H-indazole-5-carboxamide]
> 50	COCCNC(=O)c1ccc2nn(CC3CN(C(=O)c4ccc(Oc5ccc(C(F)(F)F)cc5)cc4)C3)cc2c1C [Example E95, N-(2-methoxyethyl)-4-methyl-2-[(1-{4-[4-(trifluoromethyl)phenoxy]benzoyl}azetidin-3-yl)methyl]-2H-indazole-5-carboxamide]
> 50	COCCNC(=O)c1ccc2nn(CC3CCN(C(=O)c4ccc(OC(F)F)cc4)CC3)cc2c1C [Example E178, 2-({1-[4-(difluoromethoxy)benzoyl]piperidin-4-yl}methyl)-N-(2-methoxyethyl)-4-methyl-2H-indazole-5-carboxamide]
> 50	[2H]C([2H])([2H])OC([2H])([2H])C([2H])([2H])NC(=O)c1ccc2nn(CC3CCN(C(=O)c4ccc(Cl)cc4)CC3)cc2c1C [Example E85, 2-{[1-(4-chlorobenzoyl)piperidin-4-yl]methyl}-4-methyl-N-{2-[(^2H3)methyloxy]-(^2H4)ethyl}-2H-indazole-5-carboxamide]
> 50	COCCNC(=O)c1ccc2nn(CC3CCN(C(=O)c4ccc(C(F)(F)F)cc4F)CC3)cc2c1C [Example E10, 2-({1-[2-fluoro-4-(trifluoromethyl)benzoyl]piperidin-4-yl}methyl)-N-(2-methoxyethyl)-4-methyl-2H-indazole-5-carboxamide]
> 50	COCCNC(=O)c1ccc2nn(CC3CCN(C(=O)c4ccc(Oc5ccc(C)cc5)cc4)CC3)cc2c1C [Example E14, N-(2-methoxyethyl)-4-methyl-2-({1-[4-(4-methylphenoxy)benzoyl]piperidin-4-yl}-methyl)-2H-indazole-5-carboxamide]
> 50	Cc1c(C(=O)NCCOCC(F)(F)F)ccc2nn(CC3CCN(C(=O)c4ccc(Oc5ccc(F)cc5)cc4)CC3)cc12 [Example E67]
> 50	Cc1c(C(=O)NCC(F)(F)F)ccc2nn(CC3CN(C(=O)c4ccc(Oc5ccc(Cl)cc5)cc4)C3)cc12 [Example E115, 2-({1-[4-(4-chlorophenoxy)benzoyl]azetidin-3-yl}methyl)-4-methyl-N-(2,2,2-trifluoro-ethyl)-2H-indazole-5-carboxamide]
> 50	Cc1c(C(=O)NCCOCC(F)(F)F)ccc2nn(CC3CN(C(=O)c4ccc(Cl)cc4)C3)cc12 [Example E112, 2-{[1-(4-chlorobenzoyl)azetidin-3-yl]methyl}-4-methyl-N-[2-(2,2,2-trifluoroethoxy)-ethyl]-2H-indazole-5-carboxamide]
> 50	COCCNC(=O)c1ccc2nn(CC3CCN(C(=O)c4ccc(-c5ccc(C#N)cc5C)cc4)CC3)cc2c1C [Example E180, 2-({1-[(4′-cyano-2′-methylbiphenyl-4-yl)carbonyl]piperidin-4-yl}methyl)-N-(2-methoxyethyl)-4-methyl-2H-indazole-5-carboxamide]
> 50	COCCNC(=O)c1ccc2nn(CC3CCN(C(=O)c4ccc(Br)cc4F)CC3)cc2c1C [Example E8, 2-{[1-(4-bromo-2-fluorobenzoyl)piperidin-4-yl]methyl}-N-(2-methoxyethyl)-4-methyl-2H-indazole-5-carboxamide]
> 50	COCCNC(=O)c1ccc2nn(CC3CCN(C(=O)c4ccc(Oc5ccc(F)cc5)cc4)CC3)cc2c1C [Example E3, 2-({1-[4-(4-fluorophenoxy)benzoyl]piperidin-4-yl}methyl)-N-(2-methoxyethyl)-4-methyl-2H-indazole-5-carboxamide]
> 50	Cc1c(C(=O)NCCOC(C)C)ccc2nn(CC3CCN(C(=O)c4ccc(C5CC5)cc4)CC3)cc12 [Example E76, 2-{[1-(4-cyclopropylbenzoyl)piperidin-4-yl]methyl}-N-(2-isopropoxyethyl)-4-methyl-2H-indazole-5-carboxamide]
> 50	COCCNC(=O)c1ccc2nn(CC3CCN(C(=O)c4ccc(Oc5ccc(C#N)cc5)cc4)CC3)cc2c1C [Example E153, 2-({1-[4-(4-cyanophenoxy)benzoyl]piperidin-4-yl}methyl)-N-(2-methoxyethyl)-4-methyl-2H-indazole-5-carboxamide]
> 50	Cc1c(C(=O)NCC(F)(F)F)ccc2nn(CC3CCN(C(=O)c4ccc(Oc5cccc(F)c5)cc4)CC3)cc12 [Example E131, 2-({1-[4-(3-fluorophenoxy)benzoyl]piperidin-4-yl}methyl)-4-methyl-N-(2,2,2-trifluoro-ethyl)-2H-indazole-5-carboxamide]
